Source: patent publication US20110086395A1, “NOVEL MICROORGANISM AND ITS USE IN LIGNOCELLULOSE DETOXIFICATION” (priority 2009, published 2011)
Marks after values point to notes of the source that are not given here.

Experiments:
C. basilensis HMF14 [1] = assay: Degradation of constituents of lignocellulosic hydrolysate, shake-flask cultures with each compound as single carbon source; format: cell-based, Cupriavidus basilensis
Source text: In addition to the furan derivatives, lignocellulosic hydrolysate also contains many other components that can inhibit fermentative production of biochemicals. While C. basilensis HMF14 is unable to degrade the sugars present in lignocellulosic hydrolysate, it preferably degrades many of the other toxic constituents, as illustrated in shake-flask cultures with each compound as a single carbon source (table 3).

C. basilensis HMF14 [2] = assay: Detoxification of wheat straw hydrolysate by C. basilensis HMF14; format: cell-based, Cupriavidus basilensis; details: for Removal from wheat straw hydrolysate: after ten hours of cultivation; for Concentration in hydrolysate during cultivation: during the first ten hours of cultivation
Experimental: Wheat straw hydrolysate was produced by dilute-acid hydrolysis (obtained from TNO Quality of Life, Zeist, The Netherlands). The hydrolysate was neutralized by adding 37 mM phosphate buffer (pH 7) and adjusting the pH to 7.0 with 10 M NaOH, resulting in a brown precipitate. After addition of minimal medium components, the solution was centrifuged at 10 000×g for 5 min. The supernatant was filter sterilized through a sterile PTFE filter with a pore size of 0.22 μm. The resulting medium (MMhyd) was inoculated with an overnight pre-culture of C. basilensis HMF14 in minimal medium with 3 mM HMF, 3 mM furfural and 12 mM sodium succinate.
(§1) Bacterial growth was determined by measuring optical density at 600 nm (OD600) using a Biowave Cell Density Meter (WPA Ltd) or a μQuant MQX200 universal microplate spectrophotometer (Bio-tek), using flat-bottom 96-well microplates (Greiner). Furan derivatives were analyzed on an Agilent 1100 system equipped with a diode array detector set at 230 nm. The column used was a Zorbax Eclipse XDB-C8 (length, 150 mm; internal diameter, 4.6 mm; particle size, 5 μm; Agilent) operated at 25° C. As eluent, a gradient of acetonitrile in 20 mM KH2PO4 (pH 2) with 1% acetonitrile was used at a flow of 1.2 ml/min, increasing from 0 to 5% in 3.5 min and from 5 to 40% in 2.5 min, set as smooth gradients.
Glucose, xylose and arabinose were analyzed by ion chromatography (Dionex ICS3000 system), using a CarboPac PA20 column (length, 150 mm; internal diameter, 3 mm) with 10 mM NaOH at a flow rate of 0.5 ml·min−1 as the eluent.

Cupriavidus sp. HMF14 = assay: Growth of Cupriavidus sp. HMF14 on carbon sources (strain characterization); format: cell-based, Cupriavidus basilensis
HmfFG = assay: Decarboxylase activity of HmfFG in cell extracts; format: biochemical; details: cell extracts of wildtype C. basilensis HMF14 and P. putida S12 expressing HmfFG
[3] = system: P. putida S12 pJT′hmfABCDE; assay: Growth of P. putida S12 pJT′hmfABCDE on furanics as sole carbon source; format: cell-based, Pseudomonas putida; details: growth initially poor
Source text: (§2) First, the furfural cluster hmfABCDE was introduced into P. putida S12. […] Therefore, strain S12 pJT′hmfABCDE was repeatedly transferred to fresh mineral salts medium with furfural as the sole carbon source.

P. putida S12_HMF = assay: Growth of P. putida S12_HMF on furfural or HMF as sole carbon source; format: cell-based, Pseudomonas putida
Source text: Subsequently, the hmfFGH genes were cloned into P. putida S12_fur. […] Gene hmfH′ was apparently dispensable for growth on HMF, confirming that the encoded gene had no function in HMF metabolism. Nor was the gene essential for HMF transport in P. putida S12. Thus, also all genes required for the utilization of HMF were characterized, and their functionality was reconfirmed by functional expression in a heterologous host.

C. basilensis HMF14 [4] = assay: Tolerance of C. basilensis HMF14 towards furfural and HMF, shake-flask cultures; format: cell-based, Cupriavidus basilensis; details: for Growth in the presence of compound: 5 mM; for Growth after 24 h of cultivation: shake-flask cultures with 3-15 mM furfural or HMF
Experimental: C. basilensis HMF14 grew in the presence of 5 mM of furfural or HMF (0.48 g/l, and 0.63 g/l respectively). However, since the concentration of these toxic compounds is often higher in lignocellulosic hydrolysates, with values ranging from 0 to 3.5 g/l for furfural, and from 0 to 5.9 g/l for HMF, the tolerance of C. basilensis HMF14 towards furfural and HMF was determined in shake-flask cultures with 3-15 mM furfural or HMF (FIG. 2, table 2). […] Also in the HMF cultures, no stable exponential growth was observed, but the apparent growth rate decreased rather than increased with increasing HMF concentrations.

P. putida strain S12_fur = assay: Growth of P. putida S12_fur on furfural as sole carbon source; format: cell-based, Pseudomonas putida
Source text: as §2

Ralstonia eutropha = details: cited from earlier work
C. basilensis HMF14 [5] = assay: Growth of C. basilensis HMF14 on furan derivatives as sole carbon source; format: cell-based, Cupriavidus basilensis; details: minimal medium, 3.5 mM compound as sole carbon source
Experimental: Cultures were performed either in Luria broth (LB) or in a minimal medium (MM). Enrichment cultures were performed in MM with 20 mM HMF as the carbon source (MMH20), supplemented as indicated with 0.1 g/l yeast extract as vitamin source (MMyH20). Solid media contained 1.5% agar. Soil and water samples were collected from the botanical garden of the Delft University of Technology and from a peat lake named ‘het Kootwijkerveen’ near Apeldoorn, The Netherlands. The samples were mixed and approximately 1 g was used to inoculate 50 ml MMH2O or MMyH2O in 500-ml Erlenmeyer flasks that were incubated at 30° C. for two days in a rotary shaker. One-ml samples were transferred twice to fresh medium and incubated until bacterial growth was apparent (OD600>1). The final enrichment cultures were streaked onto solid MMH10 and MMyH10 and incubated at 30° C. until colonies appeared.
as §1
In addition to HMF, other furan derivatives are present in lignocellulosic hydrolysates. […] Growth was observed on all tested furan derivatives, with slightly different growth characteristics (table 1). In cultures on furfural, furfural was initially rapidly converted to furfuryl alcohol, while also a small amount of furoic acid was formed (FIG. 1). Without wishing to be bound to any particular theory, conversion of furfural to its alcohol and/or acid form appears to be a common mechanism of furfural detoxification. At the onset of logarithmic growth, furfuryl alcohol production decreased in favour of biomass formation, which likely occurs via furoic acid. Similarly, HMF acid and -alcohol were formed in cultures with HMF as the carbon source. In addition, trace amounts of 2,5-furandicarboxylic acid and furoic acid were found in the HMF cultures (not shown).

HmfH = assay: Oxidation by HmfH in cell extracts; format: biochemical; details: cell extracts of wildtype C. basilensis HMF14 and P. putida S12 expressing HmfH
Experimental: C. basilensis HMF14 mutants with a disrupted hmfH gene accumulated HMF acid when cultured in the presence of HMF. Cell extracts of both wildtype C. basilensis HMF14 and P. putida S12 expressing HmfH formed FDCA when incubated with HMF acid, confirming that HmfH catalyzes the oxidation of the HMF-monocarboxylic acid to the dicarboxylic acid form.
Analogous to the furfural pathway, no specific genes were identified for the oxidations in the upper HMF metabolic pathway leading from HMF-alcohol to HMF and HMF-acid. Also these oxidations were concluded to be performed by non-specific, redundant dehydrogenases which activities were observed both in C. basilensis HMF14 and P. putida S12 (Table 2). However, it was observed that also HmfH could oxidize HMF, furfural, and furfuryl alcohol to the corresponding acids, respectively, furfural. Apparently, this oxidase is essential for the formation of FDCA from HMF-acid but also provides an oxidase-alternative to the non-specific alcohol and aldehyde dehydrogenases that constitute the upper metabolic pathways for HMF and furfural.

[6] = system: P. putida S12 strains expressing only HmfABCD or HmfABC; assay: Growth of P. putida S12 strains expressing only HmfABCD or HmfABC; format: cell-based, Pseudomonas putida
[7] = shake-flask cultures, compound as single carbon source

Compound: O=Cc1ccc(O)cc1 [4-hydroxybenzaldehyde]
- Substrate utilization by C. basilensis HMF14 (C. basilensis HMF14 [1]; [7]): Y

Compound: O=C(O)c1ccc(O)cc1 [4-hydroxybenzoic acid]
- Substrate utilization by C. basilensis HMF14 (C. basilensis HMF14 [1]; [7]): Y

Compound: OCc1ccc(O)cc1 [4-hydroxybenzyl alcohol]
- Substrate utilization by C. basilensis HMF14 (C. basilensis HMF14 [1]; [7]): Y

Compound: CC(=O)O [Acetic acid]
- Removal from wheat straw hydrolysate (C. basilensis HMF14 [2]): completely removed
- Substrate utilization by C. basilensis HMF14 (C. basilensis HMF14 [1]; [7]): Y
- Growth on carbon source (Cupriavidus sp. HMF14): able to grow

Compound: O=C[C@@H](O)[C@H](O)[C@H](O)CO [Arabinose]
- Concentration in hydrolysate during cultivation (C. basilensis HMF14 [2]): stable
- Substrate utilization by C. basilensis HMF14 (C. basilensis HMF14 [1]; [7]): N
- Growth on carbon source (Cupriavidus sp. HMF14): No growth

Compound: O=C(O)c1ccc(C(=O)O)o1 [FDCA, 2,5-furan-dicarboxylic acid]
- Decarboxylation by HmfFG (HmfFG): formed 2-furoic acid

Compound: COc1cc(/C=C/C(=O)O)ccc1O [Ferulic acid]
- Substrate utilization by C. basilensis HMF14 (C. basilensis HMF14 [1]; [7]): Y

Compound: O=CO [Formic acid]
- Removal from wheat straw hydrolysate (C. basilensis HMF14 [2]): completely removed
- Substrate utilization by C. basilensis HMF14 (C. basilensis HMF14 [1]; only co-utilized with a different carbon source): Y^b

Compound: O=Cc1ccco1 [Furfural]
- Utilization as sole carbon source [3]: able to utilize
- Growth rate (P. putida S12_HMF): 0.23 h⁻¹
- Yield (P. putida S12_HMF): 40 % (C-mol biomass/C-mol substrate)
- Growth in the presence of compound (C. basilensis HMF14 [4]): grew
- Growth after 24 h of cultivation (C. basilensis HMF14 [4]): growth was observed at all concentrations tested
- Substrate utilization by C. basilensis HMF14 (C. basilensis HMF14 [1]; [7]): Y
- Biomass yield (P. putida strain S12_fur): 51 % (C-mol biomass/C-mol substrate)
- Growth rate (P. putida strain S12_fur; after 10 serial transfers): 0.30 h⁻¹
- Metabolic activity of R. Eutropha on compound (Ralstonia eutropha): high metabolic activity
- Max. OD600 (C. basilensis HMF14 [5]): 1.09
- μmax (C. basilensis HMF14 [5]): 0.22 h⁻¹
- Oxidation by HmfH (HmfH): could oxidize

Compound: OCc1ccco1 [Furfuryl alcohol]
- Utilization as sole carbon source [3]: able to utilize
- Substrate utilization by C. basilensis HMF14 (C. basilensis HMF14 [1]; [7]): Y
- Max. OD600 (C. basilensis HMF14 [5]): 1.08
- μmax (C. basilensis HMF14 [5]): 0.22 h⁻¹
- Oxidation by HmfH (HmfH): could oxidize

Compound: O=C(O)c1ccco1 [Furoic acid]
- Utilization as sole carbon source [3]: able to utilize
- Max. OD600 (C. basilensis HMF14 [5]): 0.99
- μmax (C. basilensis HMF14 [5]): 0.29 h⁻¹
- Growth on compound [6]: failed to grow

Compound: COc1ccccc1O [Guaiacol]
- Substrate utilization by C. basilensis HMF14 (C. basilensis HMF14 [1]; [7]): Y

Compound: O=C(O)c1ccc(CO)o1 [HMF acid, 5-hydroxymethyl-2-furancarboxylic acid]
- Decarboxylation by HmfFG (HmfFG): not decarboxylated
- Oxidation by HmfH (HmfH): formed FDCA

Compound: O=Cc1ccc(CO)o1 [HMF, 5-(hydroxymethyl)-furfural]
- Growth rate (P. putida S12_HMF): 0.23 h⁻¹
- Yield (P. putida S12_HMF): 40 % (C-mol biomass/C-mol substrate)
- Growth in the presence of compound (C. basilensis HMF14 [4]): grew
- Growth after 24 h of cultivation (C. basilensis HMF14 [4]): growth was observed at all concentrations tested
- Substrate utilization by C. basilensis HMF14 (C. basilensis HMF14 [1]; [7]): Y
- Max. OD600 (C. basilensis HMF14 [5]): 0.95
- μmax (C. basilensis HMF14 [5]): 0.25^a h−1
- Oxidation by HmfH (HmfH): could oxidize

Compound: CC(=O)CCC(=O)O [Levulinic acid]
- Substrate utilization by C. basilensis HMF14 (C. basilensis HMF14 [1]; [7]): Y

Compound: Oc1ccccc1 [Phenol]
- Substrate utilization by C. basilensis HMF14 (C. basilensis HMF14 [1]; [7]): Y
- Growth on carbon source (Cupriavidus sp. HMF14): able to grow

Compound: COc1cc(C=O)cc(OC)c1O [Syringaldehyde]
- Substrate utilization by C. basilensis HMF14 (C. basilensis HMF14 [1]; [7]): N

Compound: COc1cc(C(=O)O)cc(OC)c1O [Syringic acid]
- Substrate utilization by C. basilensis HMF14 (C. basilensis HMF14 [1]; [7]): N

Compound: COc1cccc(OC)c1O [Syringol]
- Substrate utilization by C. basilensis HMF14 (C. basilensis HMF14 [1]; [7]): N

Compound: COc1cc(C(=O)O)ccc1O [Vanillic acid]
- Substrate utilization by C. basilensis HMF14 (C. basilensis HMF14 [1]; [7]): Y

Compound: COc1cc(C=O)ccc1O [Vanillin]
- Substrate utilization by C. basilensis HMF14 (C. basilensis HMF14 [1]; [7]): Y

Compound: COc1cc(CO)ccc1O [Vanillyl alcohol]
- Substrate utilization by C. basilensis HMF14 (C. basilensis HMF14 [1]; [7]): Y

Compound: O=C[C@H](O)[C@@H](O)[C@H](O)CO [Xylose]
- Concentration in hydrolysate during cultivation (C. basilensis HMF14 [2]): stable
- Substrate utilization by C. basilensis HMF14 (C. basilensis HMF14 [1]; [7]): N
- Growth on carbon source (Cupriavidus sp. HMF14): No growth

Compound: c1ccccc1 [benzene]
- Growth on carbon source (Cupriavidus sp. HMF14): able to grow

Compound: O=C(O)CC(O)(CC(=O)O)C(=O)O [citrate]
- Growth on carbon source (Cupriavidus sp. HMF14): able to grow

Compound: O=C(CO)[C@@H](O)[C@H](O)[C@H](O)CO [fructose]
- Metabolic activity of R. Eutropha on compound (Ralstonia eutropha): high metabolic activity

Compound: O=C(O)[C@H](O)[C@@H](O)[C@H](O)[C@H](O)CO [gluconate]
- Growth on carbon source (Cupriavidus sp. HMF14): able to grow

Compound: O=C(O)CCC(=O)O [succinate]
- Growth on carbon source (Cupriavidus sp. HMF14): able to grow

Compound: Cc1ccccc1 [toluene]
- Growth on carbon source (Cupriavidus sp. HMF14): able to grow
